From patent US20150258107A1, “METHODS AND COMPOSITIONS FOR TREATING DEPRESSION” (DemeRx, Inc., priority 2014, published 2015)

How the values were obtained:
[1] = system: opioid-dependent participants; assay: Time to resumption of opioid substitution treatment (OST) and opiate withdrawal scales; type: in vivo, human
Description: (§1) Three cohorts of nine (9) subjects (6 administered noribogaine and 3 administered placebo in each cohort) were evaluated for tolerability, pharmacokinetics, and efficacy. Cohort 1 received a single dose of 60 mg noribogaine or placebo. Cohort 2 received a single dose of 120 mg noribogaine or placebo. Cohort 3 received a single dose of 180 mg noribogaine or placebo. […] Headaches were frequent in the placebo and 60 mg noribogaine treatment groups, but were attenuated in the 120 mg and 180 mg dose groups.
Patients were evaluated based on the Clinical Opiate Withdrawal Scale (COWS), Subjective Opiate Withdrawal Scale (SOWS), and Objective Opiate Withdrawal Scale (OOWS) scoring systems over the period of time between administration of noribogaine (or placebo) until resumption of OST. These scales are outlined in Guidelines for the Psychosocially Assisted Pharmacological Treatment of Opioid Dependence, World Health Organization, Geneva (2009), Annex 10, which is incorporated herein by reference in its entirety. The scales measure the intensity of withdrawal symptoms, based on clinical, subjective, and objective indicia.

[2] = system: opioid-dependent participants; assay: Treatment emergent adverse events in opioid-dependent participants; type: in vivo, human
Description: The efficacy of noribogaine in humans was evaluated in opioid-dependent participants in a randomized, placebo-controlled, double-blind trial. […] See U.S. application Ser. No. 14/214,157, filed Mar. 14, 2014 and Ser. No. 14/346,655, filed Mar. 21, 2014, which are incorporated herein by reference in their entireties.
as §1

[3] = system: healthy, drug-free male volunteers; assay: Cold pressor test in healthy volunteers; type: in vivo, human; conditions: 3, 10, 30, 60 mg single oral dose; hand immersion duration and VAS pain scores
Description: Analgesic effect was assessed based on duration of hand immersion in ice water and on visual analog scale (VAS) pain scores upon hand removal from the water bath.
Safety and tolerability of noribogaine were tested in the group of volunteers from Example 9. […] Safety evaluations included clinical monitoring, recording of adverse events (AEs), safety laboratory tests, vital signs, ECG telemetry from −2 h to 6 h after dosing, and 12-lead electrocardiograms (ECGs) up to 216 hours post-dosing.

[4] = Single dose (acute oral) toxicity/TK study in dogs; type: in vivo, dog; conditions: dog, in vivo; single oral dose
dogs = assay: Single dose (acute oral) toxicity/TK study in dogs; type: in vivo, dog
[5] = Pharmacokinetics of noribogaine in healthy male volunteers (plasma and urine, LCMSMS); conditions: for CL/F / AUC0-216 / AUC0-∞ / Cmax / Tmax / T½: mean (SD); for AUC0-216 / AUC0-∞ / Cmax / Tmax / T½: plasma
cynomolgus monkey = assay: Single dose toxicity in cynomolgus monkeys; type: in vivo; conditions: oral gavage, doses up to and including 160 mg/kg
Description: (§2) The objective of the study was to determine the toxicity and toxicokinetic profile of noribogaine following oral (gavage) administration to the cynomolgus monkey. Each dose was followed by a 7 day washout period. Dosing was staggered by 45 minutes. On study day 15, one animal was administered 80 mg/kg and the other animal was administered 160 mg/kg. The test article was administered as follows in Table 1:
(§3) Parameters monitored on the study included: mortality, clinical signs and body weights. Blood samples were collected for TK evaluation. […] The single dose maximum tolerated dose (MTD) was determined to be greater than 160 mg/kg based on the parameters monitored during the study.

[6] = Single dose toxicity in cynomolgus monkeys; type: in vivo, cynomolgus monkey; conditions: cynomolgus monkey, in vivo; oral gavage; read-out: single dose maximum tolerated dose (MTD)
Description: as §2, §3

With `CC[C@H]1CC2C[C@H]3c4[nH]c5ccc(O)cc5c4CCN(C2)C13` [noribogaine] the “Withdrawal symptoms (COWS, OOWS, SOWS, first six hours)” value ([1]; 120 mg) was “generally experienced fewer withdrawal symptoms than the other patients”, the “Average time to resumption of opioids” value ([1]; single 120 mg dose) was “greater than 20 hours” and the “TEAE: Catheter Site Infection” value ([2]; 60 mg (N = 6)) was 0. The “TEAE: Catheter Site Pain” value ([2]; 60 mg (N = 6)) was 0, the “TEAE: Catheter Site Related Reaction” value ([2]; 60 mg (N = 6)) was 0 and the “TEAE: Cellulitis” value ([2]; 60 mg (N = 6)) was 0. The “TEAE: Diarrhoea” value ([2]; 60 mg (N = 6)) was 0, the “TEAE: Dry Mouth” value ([2]; 60 mg (N = 6)) was 0 and the “TEAE: Ear and Labyrinth Disorders” value ([2]; 60 mg (N = 6)) was 0. For the same compound, the “TEAE: Epistaxis” value ([2]; 60 mg (N = 6)) was 0, the “TEAE: Euphoric Mood” value ([2]; 60 mg (N = 6)) was 0 and the “TEAE: General Disorders and Administration Site Conditions” value ([2]; 60 mg (N = 6)) was 0. For the same compound, the “TEAE: Hyperaesthesia” value ([2]; 60 mg (N = 6)) was 0, the “TEAE: Infections and Infestations” value ([2]; 60 mg (N = 6)) was 0 and the “TEAE: Limb Discomfort” value ([2]; 60 mg (N = 6)) was 0. For the same compound, the “TEAE: Malaise” value ([2]; 60 mg (N = 6)) was 0, the “TEAE: Nausea” value ([2]; 60 mg (N = 6)) was 0 and the “TEAE: Oropharyngeal Pain” value ([2]; 60 mg (N = 6)) was 0. For the same compound, the “TEAE: Pseudoparalysis” value ([2]; 60 mg (N = 6)) was 0, the “TEAE: Respiratory, Thoracic and Mediastinal Disorders” value ([2]; 60 mg (N = 6)) was 0 and the “TEAE: Rhinorrhoea” value ([2]; 60 mg (N = 6)) was 0. For the same compound, the “TEAE: Skin Discomfort” value ([2]; 60 mg (N = 6)) was 0, the “TEAE: Skin Irritation” value ([2]; 60 mg (N = 6)) was 0 and the “TEAE: Skin and Subcutaneous Tissue Disorders” value ([2]; 60 mg (N = 6)) was 0. The “TEAE: Somnoience” value ([2]; 60 mg (N = 6)) was 0, the “TEAE: Tinnitus” value ([2]; 60 mg (N = 6)) was 0 and the “TEAE: Tremor” value ([2]; 60 mg (N = 6)) was 0. The “TEAE: Urinary Tract Infection” value ([2]; 60 mg (N = 6)) was 0, the “TEAE: Vomiting” value ([2]; 60 mg (N = 6)) was 0 and the “TEAE: Back Pain” value ([2]; 120 mg (N = 6)) was 0. For the same compound, the “TEAE: Catheter Site Infection” value ([2]; 120 mg (N = 6)) was 0, the “TEAE: Catheter Site Related Reaction” value ([2]; 120 mg (N = 6)) was 0 and the “TEAE: Depressed Mood” value ([2]; 120 mg (N = 6)) was 0. For the same compound, the “TEAE: Dry Eye” value ([2]; 120 mg (N = 6)) was 0, the “TEAE: Dyspepsia” value ([2]; 120 mg (N = 6)) was 0 and the “TEAE: Euphoric Mood” value ([2]; 120 mg (N = 6)) was 0. For the same compound, the “TEAE: Limb Discomfort” value ([2]; 120 mg (N = 6)) was 0, the “TEAE: Malaise” value ([2]; 120 mg (N = 6)) was 0 and the “TEAE: Musculoskeletal and Connective Tissue Disorders” value ([2]; 120 mg (N = 6)) was 0. The “TEAE: Psychiatric Disorders” value ([2]; 120 mg (N = 6)) was 0, the “TEAE: Somnoience” value ([2]; 120 mg (N = 6)) was 0 and the “TEAE: Urinary Tract Infection” value ([2]; 120 mg (N = 6)) was 0. For the same compound, the “TEAE: Catheter Site Infection” value ([2]; 180 mg (N = 6)) was 0, the “TEAE: Catheter Site Pain” value ([2]; 180 mg (N = 6)) was 0 and the “TEAE: Depressed Mood” value ([2]; 180 mg (N = 6)) was 0. The “TEAE: Diarrhoea” value ([2]; 180 mg (N = 6)) was 0, the “TEAE: Dry Eye” value ([2]; 180 mg (N = 6)) was 0 and the “TEAE: Dyspepsia” value ([2]; 180 mg (N = 6)) was 0. For the same compound, the “TEAE: Ear and Labyrinth Disorders” value ([2]; 180 mg (N = 6)) was 0, the “TEAE: Epistaxis” value ([2]; 180 mg (N = 6)) was 0 and the “TEAE: Euphoric Mood” value ([2]; 180 mg (N = 6)) was 0. The “TEAE: Hyperaesthesia” value ([2]; 180 mg (N = 6)) was 0, the “TEAE: Malaise” value ([2]; 180 mg (N = 6)) was 0 and the “TEAE: Pseudoparalysis” value ([2]; 180 mg (N = 6)) was 0. The “TEAE: Psychiatric Disorders” value ([2]; 180 mg (N = 6)) was 0, the “TEAE: Respiratory, Thoracic and Mediastinal Disorders” value ([2]; 180 mg (N = 6)) was 0 and the “TEAE: Rhinorrhoea” value ([2]; 180 mg (N = 6)) was 0. The “TEAE: Skin Discomfort” value ([2]; 180 mg (N = 6)) was 0, the “TEAE: Skin Irritation” value ([2]; 180 mg (N = 6)) was 0 and the “TEAE: Skin and Subcutaneous Tissue Disorders” value ([2]; 180 mg (N = 6)) was 0. For the same compound, the “TEAE: Somnoience” value ([2]; 180 mg (N = 6)) was 0, the “TEAE: Tinnitus” value ([2]; 180 mg (N = 6)) was 0 and the “TEAE: Tremor” value ([2]; 180 mg (N = 6)) was 0. The “Adverse effects incl. hallucinatory effects” value ([2]; single dose 60, 120 or 180 mg) was “Few adverse effects of noribogaine were observed in any of the participants, including no hallucinatory effects”, the “Analgesic effect in the cold pressor test” value [3] was “no analgesic effect” and the NOAEL [4] was 5 mg/kg. The “Findings at the NOAEL dose” value (dogs; 5 mg/kg) was “only transient reduction in food consumption in one dog”, the Clinical signs (dogs; 10 mg/kg) was “Convulsions and other CNS-related clinical signs” and the “Onset of clinical signs after dosing” value (dogs; 10 mg/kg) was 20 min. For the same compound, the Mortality (dogs; oral doses of 5 (n=2) or 10 (n=2) mg/kg) was “no mortality occurred”, the CL/F ([5]; 3 mg (n = 6)) was 41.4 (7.0) L/h and the AUC0-216 ([5]; 3 mg (n = 6)) was 72.2 (13.2) ng · hr/ml. The “AUC0-∞” value ([5]; 3 mg (n = 6)) was 74.2 (13.1) ng · hr/ml, the Cmax ([5]; 3 mg (n = 6)) was 5.2 (1.4) ng/ml and the Tmax ([5]; 3 mg (n = 6)) was 1.9 (0.6) hr. For the same compound, the T½ ([5]; 3 mg (n = 6)) was 40.9 (8.7) hr, the CL/F ([5]; 10 mg (n = 6)) was 42.3 (12.0) L/h and the AUC0-216 ([5]; 10 mg (n = 6)) was 251.4 (78.5) ng · hr/ml. For the same compound, the “AUC0-∞” value ([5]; 10 mg (n = 6)) was 254.5 (78.9) ng · hr/ml, the Cmax ([5]; 10 mg (n = 6)) was 14.5 (2.1) ng/ml and the Tmax ([5]; 10 mg (n = 6)) was 2.9 (1.8) hr. For the same compound, the T½ ([5]; 10 mg (n = 6)) was 49.2 (11.5) hr, the CL/F ([5]; 30 mg (n = 6)) was 46.9 (16.4) L/h and the AUC0-216 ([5]; 30 mg (n = 6)) was 677.6 (221.1) ng · hr/ml. The “AUC0-∞” value ([5]; 30 mg (n = 6)) was 700.4 (223.3) ng · hr/ml, the Cmax ([5]; 30 mg (n = 6)) was 55.9 (14.8) ng/ml and the Tmax ([5]; 30 mg (n = 6)) was 1.8 (0.6) hr. For the same compound, the T½ ([5]; 30 mg (n = 6)) was 27.6 (7.0)) hr, the CL/F ([5]; 60 mg (n = 6)) was 34.0 (11.4) L/h and the AUC0-216 ([5]; 60 mg (n = 6)) was 1935.4 (725.4) ng · hr/ml. For the same compound, the “AUC0-∞” value ([5]; 60 mg (n = 6)) was 1962.2 (726.5) ng · hr/ml, the Cmax ([5]; 60 mg (n = 6)) was 116.0 (22.5) ng/ml and the Tmax ([5]; 60 mg (n = 6)) was 2.4 (0.6) hr. For the same compound, the T½ ([5]; 60 mg (n = 6)) was 29.1 (9.3) hr, the “Dose proportionality of Cmax and AUC” value ([5]; 3-60 mg) was “Both Cmax and AUC increased linearly with dose” and the Mean half-life estimates ([5]; across dose groups) was 28 to 50 h. For the same compound, the Volume of distribution ([5]; across dose groups) was 1417 to 3086 L, the “Time of peak concentrations after oral dosing” value ([5]; across dose groups 3-60 mg) was 2 to 3 h and the “Mortality or treatment related clinical signs” value (cynomolgus monkey) was “No mortality or treatment related clinical signs were noted”. The MTD [6] was > 160 mg/kg.
